Data on 28 compounds can be found in patent US20250129104A1, “7H-PYRROLO[2,3-D]PYRIMIDINES AND PREPARATION AND USES THEREOF” (BioSplice Therapeutics, Inc., priority 2021, published 2025).

Assay [1] has as its target recombinant DYRK1A kinase (Homo sapiens (Human), UniProt Q13627). The experiment in a line: DYRK1A kinase assay (Ser/Thr 18 peptide Z-lyte FRET assay). In kind it is biochemical. As to conditions: DYRK1A kinase activity; 15 μM ATP, 1 h room temperature; method text calls the value IC50. Put shortly: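 FRET Z-lyte read-out (coumarin/fluorescein ratio, % phosphorylation) after 1 h development; IC50 from non-linear curve fit. Reaction: 0.25 μg/mL recombinant human DYRK1A, Ser/Thr 18 peptide 4 μM, ATP 15 μM, compound in 11-point 1:3 series from 10 μM, 1 h, room temperature, duplicate wells.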

The subject of assay [2] is Tau phosphorylation at Thr212 (pThr212). The experiment in a line: tau phosphorylation assay: phosphoTau (Thr212) AlphaLISA in HEK293T cells transfected with DYRK1A and MAPT. In kind it is cell-based. As to conditions: HEK-293T; HEK293T cells transfected with human DYRK1A and MAPT; 18-24 h compound treatment; read-out: pTau (Thr212) EC50. Summed up:
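HEK293T cells transiently co-transfected with human untagged DYRK1A and MAPT (441 aa Tau), reseeded, then treated 18-24 h at 37 °C with compounds (10-point 1:3 series, 20 μM to 1.1 nM final, duplicates). Lysates probed by AlphaLISA with HT7 donor and pThr212 acceptor antibodies; EC50 from curve fit of signal.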

Consider `FC(F)(F)C1(CNc2ncc3c(-c4ccc5nccn5n4)c[nH]c3n2)CC1` [Compound 920, 5-(Imidazo[1,2-b]pyridazin-6-yl)-N-((1-(trifluoromethyl)cyclopropyl)methyl)-7H-pyrrolo[2,3-d]pyrimidin-2-amine], for which the EC50 (commonly the concentration giving half of the maximal effect) in assay [1] was 6.1 nM; in assay [2], 70 nM.
In the same order, the values of `FC1(CNc2ncc3c(-c4ccc5nccn5n4)c[nH]c3n2)CCC1` [Compound 923, N-((1-Fluorocyclobutyl)methyl)-5-(imidazo[1,2-b]pyridazin-6-yl)-7H-pyrrolo[2,3-d]pyrimidin-2-amine] are 2.5 nM and 20 nM.
In the same order, the values of `FC1(F)CCC(Nc2ncc3c(-c4ccc5nccn5n4)c[nH]c3n2)CC1` [Compound 924, N-(4,4-Difluorocyclohexyl)-5-(imidazo[1,2-b]pyridazin-6-yl)-7H-pyrrolo [2,3-d]pyrimidin-2-amine] are 3.2 nM and 20 nM.
In the case of `CO[C@H]1CC[C@@H](Nc2ncc3c(-c4ccc5nccn5n4)c[nH]c3n2)CC1` [Compound 925, 5-(Imidazo[1,2-b]pyridazin-6-yl)-N-(cis-4-methoxycyclohexyl)-7H-pyrrolo[2,3-d]pyrimidin-2-amine], the EC50 was found to be 3.2 nM in assay [1] and 25 nM in assay [2].
For `Cc1cnc2ccc(-c3c[nH]c4nc(NCC(C)(C)F)ncc34)nn12` [Compound 1038, N-(2-Fluoro-2-methylpropyl)-5-(3-methylimidazo[1,2-b]pyridazin-6-yl)-7H-pyrrolo[2,3-d]pyrimidin-2-amine], the EC50 in assay [1] came to 4.2 nM; in assay [2] it was 33 nM.
Consider `COc1nc(CC(C)C)nc2[nH]cc(-c3ccn4nccc4c3)c12` [Compound 1113, 2-Isobutyl-4-methoxy-5-(pyrazolo[1,5-a]pyridin-5-yl)-7H-pyrrolo[2,3-d]pyrimidine], for which the EC50 stood at 9.2 nM in assay [1] and 572 nM in assay [2].
In the same order, the values of `c1cc2cc(-c3c[nH]c4nc(C5CC5)ncc34)ccn2n1` [Compound 1115, 2-Cyclopropyl-5-(pyrazolo[1,5-a]pyridin-5-yl)-7H-pyrrolo[2,3-d]pyrimidine] are 24.9 nM and 386 nM.
In the same order, the values of `CO[C@H]1C[C@@H](Nc2ncc3c(-c4ccn5nccc5c4)c[nH]c3n2)C1` [Compound 1140, N-(cis-3-Methoxycyclobutyl)-5-(pyrazolo[1,5-a]pyridin-5-yl)-7H-pyrrolo [2,3-d]pyrimidin-2-amine] are 2.6 nM and 6 nM.
In the case of `c1cc2cc(-c3c[nH]c4nc(NC5CC6(COC6)C5)ncc34)ccn2n1` [Compound 1141, 5-(Pyrazolo[1,5-a]pyridin-5-yl)-N-(2-oxaspiro[3.3]heptan-6-yl)-7H-pyrrolo [2,3-d]pyrimidin-2-amine], the EC50 came out at 385 nM in assay [1] and 7 nM in assay [2].
In the same order, the values of `FC1(F)CCC(Nc2ncc3c(-c4ccn5nccc5c4)c[nH]c3n2)CC1` [Compound 1142, N-(4,4-Difluorocyclohexyl)-5-(pyrazolo[1,5-a]pyridin-5-yl)-7H-pyrrolo[2,3-d]pyrimidin-2-amine] are 5.7 nM and 32 nM.
The like results for `CO[C@H]1CC[C@@H](Nc2ncc3c(-c4ccn5nccc5c4)c[nH]c3n2)CC1` [Compound 1143, N-(cis-4-Methoxycyclohexyl)-5-(pyrazolo[1,5-a]pyridin-5-yl)-7H-pyrrolo [2,3-d]pyrimidin-2-amine] were, in that order, 3.7 nM and 4 nM.
The like results for `c1cc2cc(-c3c[nH]c4nc(NC5CCOCC5)ncc34)ccn2n1` [Compound 1148, 5-(Pyrazolo[1,5-a]pyridin-5-yl)-N-(tetrahydro-2H-pyran-4-yl)-7H-pyrrolo [2,3-d]pyrimidin-2-amine] were, in that order, 4.2 nM and 11 nM.
For the compound `CC(C)(F)CNc1ncc2c(-c3ccn4ncc(C(=O)N5CCCCC5)c4c3)c[nH]c2n1` [Compound 1214, (5-(2-((2-Fluoro-2-methylpropyl)amino)-7H-pyrrolo[2,3-d]pyrimidin-5-yl)pyrazolo[1,5-a]pyridin-3-yl)(piperidin-1-yl)methanone], the results for the EC50 in assay [1] and in assay [2] were 9.7 nM and 219 nM, respectively.
The like results for `CN1CCC(Nc2ncc3c(-c4ccn5ncc(C(=O)N6CCCCC6)c5c4)c[nH]c3n2)CC1` [Compound 1233, (5-(2-((1-Methylpiperidin-4-yl)amino)-7H-pyrrolo[2,3-d]pyrimidin-5-yl)pyrazolo[1,5-a]pyridin-3-yl)(piperidin-1-yl)methanone] were, in that order, 18.1 nM and 116 nM.
The like results for `O=C(NCC(F)F)c1cnn2ccc(-c3c[nH]c4nc(C5CC5)ncc34)cc12` [Compound 1249, 5-(2-Cyclopropyl-7H-pyrrolo[2,3-d]pyrimidin-5-yl)-N-(2,2-difluoroethyl) pyrazolo[1,5-a]pyridine-3-carboxamide] were, in that order, 1.6 nM and 27 nM.
In the same order, the values of `O=C(NCC(F)F)c1cnn2ccc(-c3c[nH]c4nc(C5CCC5)ncc34)cc12` [Compound 1250, 5-(2-Cyclobutyl-7H-pyrrolo[2,3-d]pyrimidin-5-yl)-N-(2,2-difluoroethyl) pyrazolo[1,5-a]pyridine-3-carboxamide] are 14.6 nM and 141 nM.
Turning to `CC(C)(F)CNC(=O)c1cnn2ccc(-c3c[nH]c4nc(C5CC5)ncc34)cc12` [Compound 1292, 5-(2-Cyclopropyl-7H-pyrrolo[2,3-d]pyrimidin-5-yl)-N-(2-fluoro-2-methylpropyl)pyrazolo[1,5-a]pyridine-3-carboxamide], the EC50 in assay [1] is 2.3 nM; in assay [2], 54 nM.
The like results for `C[C@@H](NC(=O)c1cnn2ccc(-c3c[nH]c4nc(C5CC5)ncc34)cc12)C(F)(F)F` [Compound 1335, (R)-5-(2-Cyclopropyl-7H-pyrrolo[2,3-d]pyrimidin-5-yl)-N-(1,1,1-trifluoropropan-2-yl)pyrazolo[1,5-a]pyridine-3-carboxamide] were, in that order, 17.7 nM and 236 nM.
In the same order, the values of `O=C(NC1CC(F)(F)C1)c1cnn2ccc(-c3c[nH]c4nc(C5CC5)ncc34)cc12` [Compound 1378, 5-(2-Cyclopropyl-7H-pyrrolo[2,3-d]pyrimidin-5-yl)-N-(3,3-difluorocyclobutyl)pyrazolo[1,5-a]pyridine-3-carboxamide] are 2.6 nM and 604 nM.
The like results for `CN1CCC(NC(=O)c2cnn3ccc(-c4c[nH]c5nc(C6CCC6)ncc45)cc23)CC1` [Compound 1509, 5-(2-Cyclobutyl-7H-pyrrolo[2,3-d]pyrimidin-5-yl)-N-(1-methylpiperidin-4-yl)pyrazolo[1,5-a]pyridine-3-carboxamide] were, in that order, 39.9 nM and 7020 nM.
With `CN1CCC(NC(=O)c2cnn3ccc(-c4c[nH]c5nc(NCC(C)(C)C)ncc45)cc23)CC1` [Compound 1516, N-(1-Methylpiperidin-4-yl)-5-(2-(neopentylamino)-7H-pyrrolo[2,3-d]pyrimidin-5-yl)pyrazolo[1,5-a]pyridine-3-carboxamide], the EC50 in assay [1] was determined as 5.8 nM; in assay [2], 34 nM.
As to `CN1CCC(NC(=O)c2cnn3ccc(-c4c[nH]c5nc(NCC6(F)CCCCC6)ncc45)cc23)CC1` [Compound 1535, 5-(2-(((1-Fluorocyclohexyl)methyl)amino)-7H-pyrrolo[2,3-d]pyrimidin-5-yl)-N-(1-methylpiperidin-4-yl)pyrazolo[1,5-a]pyridine-3-carboxamide], the EC50 in assay [1] was determined as 1.2 nM; in assay [2], 24 nM.
`CN1CCC(Nc2ncc3c(-c4ccn5ncc(C(=O)Nc6cccnc6)c5c4)c[nH]c3n2)CC1` [Compound 1624, 5-(2-((1-Methylpiperidin-4-yl)amino)-7H-pyrrolo[2,3-d]pyrimidin-5-yl)-N-(pyridin-3-yl)pyrazolo[1,5-a]pyridine-3-carboxamide]: the EC50 in assay [1] worked out at 3.7 nM; in assay [2] it was 3910 nM.
As to `CC(C)(F)CNc1ncc2c(-c3ccn4nccc4n3)c[nH]c2n1` [Compound 1648, N-(2-Fluoro-2-methylpropyl)-5-(pyrazolo[1,5-a]pyrimidin-5-yl)-7H-pyrrolo [2,3-d]pyrimidin-2-amine], the figures for the EC50 in assay [1] and in assay [2] were 3.9 nM and 152 nM, respectively.
The like results for `CC1(CNc2ncc3c(-c4ccn5nccc5n4)c[nH]c3n2)CC1` [Compound 1658, N-((1-Methylcyclopropyl)methyl)-5-(pyrazolo[1,5-a]pyrimidin-5-yl)-7H-pyrrolo[2,3-d]pyrimidin-2-amine] were, in that order, 10.5 nM and 120 nM.
In the same order, the values of `FC(F)(F)C1(CNc2ncc3c(-c4ccn5nccc5n4)c[nH]c3n2)CC1` [Compound 1659, 5-(Pyrazolo[1,5-a]pyrimidin-5-yl)-N-((1-(trifluoromethyl)cyclopropyl)methyl)-7H-pyrrolo[2,3-d]pyrimidin-2-amine] are 19.9 nM and 141 nM.
The like results for `FC1(CNc2ncc3c(-c4ccn5nccc5n4)c[nH]c3n2)CCC1` [Compound 1662, N-((1-Fluorocyclobutyl)methyl)-5-(pyrazolo[1,5-a]pyrimidin-5-yl)-7H-pyrrolo[2,3-d]pyrimidin-2-amine] were, in that order, 13.4 nM and 103 nM.
On to `CO[C@H]1CC[C@@H](Nc2ncc3c(-c4ccn5nccc5n4)c[nH]c3n2)CC1` [Compound 1664, N-(cis-4-Methoxycyclohexyl)-5-(pyrazolo[1,5-a]pyrimidin-5-yl)-7H-pyrrolo[2,3-d]pyrimidin-2-amine], for which the EC50 is 6 nM in assay [1] and 56 nM in assay [2].
